From patent publication US11786519B2, “Apoptosis-inducing agents for the treatment of cancer and immune and autoimmune diseases” (AbbVie Inc., priority 2011, dated 2023)
pEC50, pKi: −log10 of the molar value.

How the values were obtained:
Bcl-xL = Bcl-xL (Homo sapiens, UniProt Q07817); assay: TR-FRET binding assay, competition with F-Bak for Bcl-xL; settings: competition with F-Bak probe, GST-Bcl-xL
Procedure, shortened: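 Serially diluted compounds ([…] as 2× starting concentration, 10% DMSO) compete with F-Bak probe for Bcl-xL, detected via Tb-labelled antibody TR-FRET after 2 h at room temperature. Excitation 340 nm, emission 520/495 nm; Ki derived by Wang's equation. Can be run with human or fetal bovine serum.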

[1] = biological target: mouse FL5.12 cells transfected with Bcl-xL (Homo sapiens, UniProt Q07817); assay: FL5.12 cellular assay (cell viability, CellTiter-Glo); type: cell-based; settings: IL-3-depleted, 3% FBS assay media, 24 hours; read-out: FL5.12 Bcl-xL, −IL3, EC50
Source text: Individual determinations were the result of duplicate values.

Chain of Bcl-xL (Q07817 whole entry): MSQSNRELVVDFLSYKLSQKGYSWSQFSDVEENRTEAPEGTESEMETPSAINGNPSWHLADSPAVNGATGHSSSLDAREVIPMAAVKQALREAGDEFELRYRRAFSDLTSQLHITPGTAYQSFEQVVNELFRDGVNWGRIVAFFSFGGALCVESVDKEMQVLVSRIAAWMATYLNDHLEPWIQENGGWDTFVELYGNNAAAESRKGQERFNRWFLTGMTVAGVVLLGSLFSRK
Chain of mouse FL5.12 cells transfected with Bcl-xL (Q07817 whole entry, change not shown): as the sequence (Q07817 whole entry) above

SMILES | pKi (Bcl-xL) | pEC50 [1]
Cc1c(-c2ccc(N3CCc4cccc(C(=O)Nc5nc6ccccc6s5)c4C3)nc2C(=O)NS(C)(=O)=O)cc(C#N)n1CC12CC3CC(CC(C3)C1)C2 [Example 35, N-(1,3-benzothiazol-2-yl)-2-{5-[5-cyano-2-methyl-1-(tricyclo[3.3.1.1^3,7]dec-1-ylmethyl)-1H-pyrrol-3-yl]-6-[(methylsulfonyl)carbamoyl]pyridin-2-yl}-1,2,3,4-tetrahydroisoquinoline-8-carboxamide] | > 10.00 | 9.00
COC12CC3CC(CC(Cn4ncc(-c5ccc(N6CCc7cccc(C(=O)Nc8nc9ccccc9s8)c7C6)nc5C(=O)NS(=O)(=O)C(F)(F)F)c4C)(C3)C1)C2 [Example 40, N-(1,3-benzothiazol-2-yl)-2-[5-(1-{[3-methoxytricyclo[3.3.1.1^3,7]dec-1-yl]methyl}-5-methyl-1H-pyrazol-4-yl)-6-{[(trifluoromethyl)sulfonyl]carbamoyl}pyridin-2-yl]-1,2,3,4-tetrahydroisoquinoline-8-carboxamide] | 10.00 | 7.33
COCCC1(Cn2ncc(-c3ccc(N4CCc5cccc(C(=O)Nc6nc7ccccc7s6)c5C4)nc3C(=O)O)c2C)CCCCCCC1 [Example 46, 6-[8-(1,3-benzothiazol-2-ylcarbamoyl)-3,4-dihydroisoquinolin-2(1H)-yl]-3-(1-{[1-(2-methoxyethyl)cyclooctyl]methyl}-5-methyl-1H-pyrazol-4-yl)pyridine-2-carboxylic acid] | > 10.00 | 9.00
Cc1c(OC23CC4CC(CC(C4)C2)C3)cccc1-c1ccc(N2CCc3cccc(C(=O)Nc4nc5ccccc5s4)c3C2)nc1C(=O)O [Example 28, 6-[8-(1,3-benzothiazol-2-ylcarbamoyl)-3,4-dihydroisoquinolin-2(1H)-yl]-3-{2-methyl-3-[tricyclo[3.3.1.1^3,7]dec-1-yloxy]phenyl}pyridine-2-carboxylic acid] | 9.30 | 7.66
O=C(Nc1nc2ccccc2s1)c1cccc2c1CN(c1ccc(-c3ccnc(OCC45CC6CC(CC(C6)C4)C5)c3)c(C(=O)O)n1)CC2 [Example 25, 6-[8-(1,3-benzothiazol-2-ylcarbamoyl)-3,4-dihydroisoquinolin-2(1H)-yl]-2′-(tricyclo[3.3.1.1^3,7]dec-1-ylmethoxy)-3,4′-bipyridine-2-carboxylic acid] | 9.10 | < 6.00
O=C(Nc1nc2ccccc2s1)c1cccc2c1CN(c1ccc(-c3cnn(CC4CC5CCC(C4)N5C(=O)OCc4ccccc4)c3)c(C(=O)O)n1)CC2 (stereo not shown) [Example 84, 6-[8-(1,3-benzothiazol-2-ylcarbamoyl)-3,4-dihydroisoquinolin-2(1H)-yl]-3-[1-({8-[(benzyloxy)carbonyl]-8-azabicyclo[3.2.1]oct-3-yl}methyl)-1H-pyrazol-4-yl]pyridine-2-carboxylic acid] | 9.05 | < 6.00
Cc1c(-c2ccc(N3CCc4cccc(C(=O)Nc5nc6ccncc6s5)c4C3)nc2C(=O)O)cnn1CC12CC3CC(CC(C3)C1)C2 [Example 78, 3-[5-methyl-1-(tricyclo[3.3.1.1^3,7]dec-1-ylmethyl)-1H-pyrazol-4-yl]-6-[8-([1,3]thiazolo[5,4-c]pyridin-2-ylcarbamoyl)-3,4-dihydroisoquinolin-2(1H)-yl]pyridine-2-carboxylic acid] | > 10.00 | 8.52
O=C(Nc1nc2ccccc2s1)c1cccc2c1CN(c1ccc(-c3cccc(OCC45CC6CC(CC(C6)C4)C5)c3)c(C(=O)O)n1)CC2 [Example 22, 6-[8-(1,3-benzothiazol-2-ylcarbamoyl)-3,4-dihydroisoquinolin-2(1H)-yl]-3-{3-[tricyclo[3.3.1.1^3,7]dec-1-ylmethoxy]phenyl}pyridine-2-carboxylic acid] | 9.00 | < 6.00
Cc1c(-c2ccc(N3CCc4cccc(C(=O)Nc5nc6ccccc6s5)c4C3)nc2C(=O)O)cnn1CC1(OCCS(C)(=O)=O)CCCCCCC1 [Example 65, 6-[8-(1,3-benzothiazol-2-ylcarbamoyl)-3,4-dihydroisoquinolin-2(1H)-yl]-3-[5-methyl-1-({1-[2-(methylsulfonyl)ethoxy]cyclooctyl}methyl)-1H-pyrazol-4-yl]pyridine-2-carboxylic acid] | > 10.00 | 9.00
Cc1c(-c2ccc(N3CCc4cccc(C(=O)Nc5nc6cccnc6s5)c4C3)nc2C(=O)O)cnn1CC12CC3CC(CC(C3)O1)C2 [Example 67, 3-[5-methyl-1-(2-oxatricyclo[3.3.1.1^3,7]dec-1-ylmethyl)-1H-pyrazol-4-yl]-6-[8-([1,3]thiazolo[5,4-b]pyridin-2-ylcarbamoyl)-3,4-dihydroisoquinolin-2(1H)-yl]pyridine-2-carboxylic acid] | > 10.00 | 8.05
COCCOCCOC12CC3CC(CC(Cn4ncc(-c5ccc(N6CCc7cccc(C(=O)Nc8nc9ccccc9s8)c7C6)nc5C(=O)O)c4C)(C3)C1)C2 [Example 63, 6-[8-(1,3-benzothiazol-2-ylcarbamoyl)-3,4-dihydroisoquinolin-2(1H)-yl]-3-[1-({3-[2-(2-methoxyethoxy)ethoxy]tricyclo[3.3.1.1^3,7]dec-1-yl}methyl)-5-methyl-1H-pyrazol-4-yl]pyridine-2-carboxylic acid] | > 10.00 | 8.52
Cc1c(-c2ccc(N3CCc4cccc(C(=O)Nc5nc6ccccc6s5)c4C3)nc2C(=O)NS(C)(=O)=O)cnn1CC12CC3CC(CC(C3)C1)C2 [Example 17, N-(1,3-benzothiazol-2-yl)-2-{6-[(methylsulfonyl)carbamoyl]-5-[5-methyl-1-(tricyclo[3.3.1.1^3,7]dec-1-ylmethyl)-1H-pyrazol-4-yl]pyridin-2-yl}-1,2,3,4-tetrahydroisoquinoline-8-carboxamide] | > 10.00 | 9.00
Cc1c(-c2ccc(N3CCc4cccc(C(=O)Nc5nc6ccccc6s5)c4C3)nc2C(=O)O)ccnc1NC12CC3CC(CC(C3)C1)C2 [Example 76, 6-[8-(1,3-benzothiazol-2-ylcarbamoyl)-3,4-dihydroisoquinolin-2(1H)-yl]-3′-methyl-2′-(tricyclo[3.3.1.1^3,7]dec-1-ylamino)-3,4′-bipyridine-2-carboxylic acid] | > 10.00 | 7.15
N#Cc1c(-c2ccc(N3CCc4cccc(C(=O)Nc5nc6ccccc6s5)c4C3)nc2C(=O)O)cnn1CC12CC3CC(CC(C3)C1)C2 [Example 29, 6-[8-(1,3-benzothiazol-2-ylcarbamoyl)-3,4-dihydroisoquinolin-2(1H)-yl]-3-{5-cyano-1-[tricyclo[3.3.1.1^3,7]dec-1-ylmethyl]-1H-pyrazol-4-yl}pyridine-2-carboxylic acid] | > 10.00 | 8.52
CC12CC3(C)CC(C)(C1)CC(Cn1cc(-c4ccc(N5CCc6cccc(C(=O)Nc7nc8ccccc8s7)c6C5)nc4C(=O)O)cn1)(C2)C3 [Example 9, 6-[8-(1,3-benzothiazol-2-ylcarbamoyl)-3,4-dihydroisoquinolin-2(1H)-yl]-3-{1-[(3,5,7-trimethyltricyclo[3.3.1.1^3,7]dec-1-yl)methyl]-1H-pyrazol-4-yl}pyridine-2-carboxylic acid] | 9.70 | 8.52
Cc1c(-c2ccc(N3CCc4cccc(C(=O)Nc5nc6ccccc6s5)c4C3)nc2C(=O)O)ccnc1SC12CC3CC(CC(C3)C1)C2 [Example 74, 6-[8-(1,3-benzothiazol-2-ylcarbamoyl)-3,4-dihydroisoquinolin-2(1H)-yl]-3′-methyl-2′-(tricyclo[3.3.1.1^3,7]dec-1-ylsulfanyl)-3,4′-bipyridine-2-carboxylic acid] | > 10.00 | 8.15
Cc1c(-c2ccc(N3CCc4cccc(C(=O)Nc5nc6ccccc6s5)c4C3)nc2C(=O)NS(=O)(=O)C2CC2)cc(C#N)n1CC12CC3CC(CC(C3)C1)C2 [Example 36, N-(1,3-benzothiazol-2-yl)-2-{5-[5-cyano-2-methyl-1-(tricyclo[3.3.1.1^3,7]dec-1-ylmethyl)-1H-pyrrol-3-yl]-6-[(cyclopropylsulfonyl)carbamoyl]pyridin-2-yl}-1,2,3,4-tetrahydroisoquinoline-8-carboxamide] | 9.52 | 9.10
Cc1c(-c2ccc(N3CCc4cccc(C(=O)Nc5nc6ccccc6s5)c4C3)nc2-c2nn[nH]n2)cnn1CC12CC3CC(CC(C3)C1)C2 [Example 19, N-(1,3-benzothiazol-2-yl)-2-{5-[5-methyl-1-(tricyclo[3.3.1.1^3,7]dec-1-ylmethyl)-1H-pyrazol-4-yl]-6-(2H-tetrazol-5-yl)pyridin-2-yl}-1,2,3,4-tetrahydroisoquinoline-8-carboxamide] | 10.00 | 8.52
N#Cc1c(SC23CC4CC(CC(C4)C2)C3)cccc1-c1ccc(N2CCc3cccc(C(=O)Nc4nc5ccccc5s4)c3C2)nc1C(=O)O [Example 48, 6-[8-(1,3-benzothiazol-2-ylcarbamoyl)-3,4-dihydroisoquinolin-2(1H)-yl]-3-{2-cyano-3-[tricyclo[3.3.1.1^3,7]dec-1-ylsulfanyl]phenyl}pyridine-2-carboxylic acid] | 9.70 | 8.10
O=C(Nc1nc2ccccc2s1)c1cccc2c1CN(c1ccc(-c3cnn(CC45CC6CC(C4)CC(N4CCS(=O)(=O)CC4)(C6)C5)c3)c(C(=O)O)n1)CC2 [Example 33, 6-[8-(1,3-benzothiazol-2-ylcarbamoyl)-3,4-dihydroisoquinolin-2(1H)-yl]-3-(1-{[3-(1,1-dioxidothiomorpholin-4-yl)tricyclo[3.3.1.1^3,7]dec-1-yl]methyl}-1H-pyrazol-4-yl)pyridine-2-carboxylic acid] | 10.00 | < 6.00
